# From ChEMBL document CHEMBL5729293, “Inhibitors of KEAP1-Nrf2 protein-protein interaction” (2022)
# Experiment: Fluorescence Based Assay: The details of the KEAP1 KELCH ThermoFluor® Assay Construct are as follows: Kelch domain of human KEAP 1 (321-624 aa) was used in the assay. The protein was expressed in E. coli with 6His tag that was cleaved prior to receipt for use.ThermoFluor® experiments were carried out using instruments owned by Janssen Research and Discovery, L.L.C. through its acquisition of 3-Dimensional Pharmaceuticals, Inc. 1,8-ANS (Invitrogen) was used as a fluorescent dye. Protein (KEAP Kelch) and compound solutions were dispensed into black 384-well polypropylene PCR microplates (Abgene) and overlayed with silicone oil (1 μL, Fluka, type DC 200) to prevent evaporation.Reference wells contained KEAP Kelch without compounds, and the assay conditions were as follows: 1.1 μM (0.037mg/mL) KEAP Kelch, 80 μM 1,8-ANS, 25 mM PIPES, pH 7.0, 100 mM NaCl, 0.002% Tween-20.
row,SMILES,Kd
1,CC[C@@H]1CN(Cc2cc(C(CC(=O)O)c3ccn4c(C(F)F)nnc4c3C)ccc2C)S(=O)(=O)c2cccnc2O1 (some centres undefined),< 1 nM
2,Cc1ccc([C@H](CC(=O)O)c2ccn3c(C(F)(F)F)nnc3c2C)nc1CN1C[C@@H]2CCCCN2c2ncccc2S1(=O)=O,< 1 nM
3,Cc1ccc([C@H](CC(=O)O)c2ccn3c(C(F)F)nnc3c2C)cc1CN1CC2(COC2)Oc2ncccc2S1(=O)=O,< 1 nM
4,Cc1cc2cc([C@H](CC(=O)O)c3ccc(C)c(CN4C[C@@H]5CCCCN5c5ncccc5S4(=O)=O)c3)n(C)c2nn1,< 1 nM
5,Cc1ccc(C(CC(=O)O)c2ccn3c(C(F)(F)F)nnc3c2C)nc1CN1CC2(CC2)Oc2ncccc2S1(=O)=O (centres undefined),< 1 nM
6,Cc1ccc(C(CC(=O)O)c2ccn3c(C(F)(F)F)nnc3c2C)nc1CN1C[C@@H]2CCCCN2c2ncc(F)cc2S1(=O)=O (some centres undefined),< 1 nM
7,Cc1ccc([C@@H](CC(=O)O)c2ccn3c(C(F)F)nnc3c2C)cc1CN1CC2(COC2)Oc2ncccc2S1(=O)=O,< 1 nM
8,Cc1ccc(C(CC(=O)O)c2ccn3c(C(F)F)nnc3c2C)cc1CN1C[C@]2(C)CCCN2c2ncccc2S1(=O)=O (some centres undefined),< 1 nM
9,CC[C@@H]1CN(Cc2cc([C@@H](CC(=O)O)c3ccn4c(C(F)F)nnc4c3C)ccc2C)S(=O)(=O)c2cccnc2O1,< 1 nM
10,Cc1ccc([C@@H](CC(=O)O)c2ccn3c(C(F)(F)F)nnc3c2C)nc1CN1CC2(CC2)Oc2ncc(F)cc2S1(=O)=O,< 1 nM
11,Cc1cnc2c(c1)S(=O)(=O)N(Cc1nc([C@H](CC(=O)O)c3ccn4c(C(F)(F)F)nnc4c3C)ccc1C)C[C@H]1CCCCN21,< 1 nM
12,Cc1ccc([C@H](CC(=O)O)c2cc(OC3CC3)c3c(c2)nnn3C)cc1CN1C[C@H]2CCCCN2c2ncccc2S1(=O)=O,< 1 nM
13,Cc1ccc([C@H](CC(=O)O)c2ccn3c(C(F)(F)F)nnc3c2C)nc1CN1CC2(COC2)Oc2ncccc2S1(=O)=O,< 1 nM
14,Cc1cnc2c(c1)S(=O)(=O)N(Cc1nc([C@@H](CC(=O)O)c3ccn4c(C(F)(F)F)nnc4c3C)ccc1C)C[C@H]1CCCCN21,< 1 nM
15,Cc1ccc([C@@H](CC(=O)O)c2ccn3c(C(F)(F)F)nnc3c2C)nc1CN1C[C@H]2CCCCN2c2ncc(Cl)cc2S1(=O)=O,< 1 nM
16,Cc1cc2cc(C(CC(=O)O)c3ccc(C)c(CN4C[C@@H]5CCCCN5c5ncccc5S4(=O)=O)c3)n(C)c2nn1 (some centres undefined),< 1 nM
17,Cc1ccc([C@H](CC(=O)O)c2ccn3c(C(F)F)nnc3c2C)cc1CN1C[C@H]2CCCN2c2ncccc2S1(=O)=O,< 1 nM
18,Cc1ccc(C(CC(=O)O)c2ccn3c(C(F)(F)F)nnc3c2C)nc1CN1CC2CCCCN2c2ncc(Cl)cc2S1(=O)=O (centres undefined),< 1 nM
19,Cc1ccc([C@@H](CC(=O)O)c2ccn3c(C(F)(F)F)nnc3c2C)cc1CN1C[C@H]2CCC(F)(F)CN2c2ncccc2S1(=O)=O,< 1 nM
20,Cc1ccc([C@H](CC(=O)O)c2ccn3c(C(F)(F)F)nnc3c2C)cc1CN1C[C@@H]2CCC(F)(F)CN2c2ncccc2S1(=O)=O,< 1 nM
21,Cc1ccc(C(CC(=O)O)c2ccn3c(C(F)F)nnc3c2C)cc1CN1C[C@@H]2CCCCN2c2ncccc2S1(=O)=O (some centres undefined),< 1 nM
22,Cc1ccc([C@H](c2ccn3c(C(F)(F)F)nnc3c2C)C(C)(C)C(=O)O)cc1CN1C[C@@H]2CCCCN2c2ncc(C#N)cc2S1(=O)=O,< 1 nM
23,Cc1ccc(C(CC(=O)O)c2ccn3c(C(F)F)nnc3c2C)cc1CN1CC2(CC2)Oc2ncccc2S1(=O)=O (centres undefined),< 1 nM

row,SMILES,Kd
1,Cc1ccc([C@H](CC(=O)O)c2ccn3c(C(F)F)nnc3c2C)cc1CN1CC2(CC2)Oc2ncc(F)cc2S1(=O)=O,< 1 nM
2,Cc1ccc(C(CC(=O)O)c2ccn3c(C(F)(F)F)nnc3c2C)nc1CN1CC2(CC2)Oc2ncc(F)cc2S1(=O)=O (centres undefined),< 1 nM
3,Cc1ccc([C@H](CC(=O)O)c2ccn3c(C(F)(F)F)nnc3c2C)nc1CN1CC2(CC2)Oc2ncccc2S1(=O)=O,< 1 nM
4,Cc1ccc([C@H](CC(=O)O)c2ccn3c(C(F)F)nnc3c2C)cc1CN1C[C@]2(C)CCCN2c2ncccc2S1(=O)=O,< 1 nM
5,Cc1ccc([C@H](CC(=O)O)c2ccn3c(C(F)(F)F)nnc3c2C)nc1CN1C[C@@H]2CCCCN2c2ncc(F)cc2S1(=O)=O,< 1 nM
6,Cc1ccc([C@@H](c2ccc3c(nnn3CC3CC3)c2C)C(C)(C)C(=O)O)cc1CN1CC2(CCOCC2)Oc2ncccc2S1(=O)=O,< 1 nM
7,Cc1cc2cc([C@H](CC(=O)O)c3ccc(C)c(CN4C[C@H]5CCCCN5c5ncccc5S4(=O)=O)c3)n(C)c2nn1,< 1 nM
8,CCc1c([C@@H](CC(=O)O)c2ccc(C)c(CN3C[C@H]4CCCCN4c4ncc(C)cc4S3(=O)=O)c2)ccn2c(C(F)(F)F)nnc12,< 1 nM
9,Cc1cnc2c(c1)S(=O)(=O)N(Cc1cc(C(CC(=O)O)c3ccn4c(C(F)F)nnc4c3C)ccc1C)C[C@@H]1CCCCN21 (some centres undefined),< 1 nM
10,Cc1ccc([C@H](c2ccn3c(C(F)(F)F)nnc3c2C)C(C)(C)C(=O)O)cc1CN1CC(C)(C)Oc2ncccc2S1(=O)=O,< 1 nM
11,Cc1cc2cc([C@H](CC(=O)O)c3ccc(C)c(CN4C[C@H]5CCCN5c5ncccc5S4(=O)=O)c3)n(C)c2nn1,< 1 nM
12,CCn1nnc2c(C)c(C(CC(=O)O)c3ccc(C)c(CN4CC5(CCOCC5)Oc5ccc(F)cc5S4(=O)=O)n3)ccc21 (centres undefined),< 1 nM
13,Cc1ccc(C(CC(=O)O)c2ccn3c(C(F)F)nnc3c2C)cc1CN1CC2(COC2)Oc2ncccc2S1(=O)=O (centres undefined),< 1 nM
14,Cc1cnc2c(c1)S(=O)(=O)N(Cc1nc(C(CC(=O)O)c3ccn4c(C(F)(F)F)nnc4c3C)ccc1C)C[C@@H]1CCCCN21 (some centres undefined),< 1 nM
15,Cc1ccc([C@@H](CC(=O)O)c2ccn3c(C(F)(F)F)nnc3c2C)nc1CN1C[C@@H]2CCCCN2c2ncccc2S1(=O)=O,< 1 nM
16,Cc1ccc([C@@H](CC(=O)O)c2ccn3c(C(F)(F)F)nnc3c2C)nc1CN1CC2(CC2)Oc2ncccc2S1(=O)=O,< 1 nM
17,Cc1ccc(C(CC(=O)O)c2ccn3c(C(F)(F)F)nnc3c2C)nc1CN1C[C@@H]2CCCCN2c2ncccc2S1(=O)=O (some centres undefined),< 1 nM
18,Cc1ccc([C@H](CC(=O)O)c2ccn3c(C(F)(F)F)nnc3c2C)nc1CN1C[C@@H]2CCCCN2c2ncc(Cl)cc2S1(=O)=O,< 1 nM
19,Cc1ccc([C@@H](CC(=O)O)c2ccn3c(C(F)(F)F)nnc3c2C)cc1CN1C[C@@H]2CCC(F)(F)CN2c2ncccc2S1(=O)=O,< 1 nM
20,Cc1ccc([C@H](CC(=O)O)c2ccn3c(C(F)(F)F)nnc3c2C)nc1CN1CC2(CC2)Oc2ncc(F)cc2S1(=O)=O,< 1 nM
21,Cc1ccc([C@@H](CC(=O)O)c2ccn3c(C(F)(F)F)nnc3c2C)nc1CN1C[C@@H]2CCCCN2c2ncc(Cl)cc2S1(=O)=O,< 1 nM
22,Cc1ccc(C(CC(=O)O)c2ccn3c(C(F)F)nnc3c2C)cc1CN1CC2(CCOCC2)Oc2ccc(F)cc2S1(=O)=O (centres undefined),< 1 nM
23,Cc1ccc([C@@H](CC(=O)O)c2ccn3c(C(F)(F)F)nnc3c2C)nc1CN1C[C@@H]2CCCCN2c2ncc(F)cc2S1(=O)=O,< 1 nM

row,SMILES,Kd
1,CCn1nnc2c(C)c([C@H](CC(=O)O)c3ccc(C)c(CN4CC5(CCOCC5)Oc5ccc(F)cc5S4(=O)=O)n3)ccc21,< 1 nM
2,Cc1ccc([C@@H](c2ccn3c(C(F)(F)F)nnc3c2C)C(C)(C)C(=O)O)cc1CN1C[C@H]2CCCCN2c2ncc(C#N)cc2S1(=O)=O,< 1 nM
3,Cc1ccc(C(CC(=O)O)c2ccn3c(C(F)(F)F)nnc3c2C)nc1CN1CC2(COC2)Oc2ncccc2S1(=O)=O (centres undefined),< 1 nM
4,Cc1cnc2c(c1)S(=O)(=O)N(Cc1nc([C@H](CC(=O)O)c3ccn4c(C(F)(F)F)nnc4c3C)ccc1C)C[C@@H]1CCCCN21,< 1 nM
5,Cc1ccc(C(CC(=O)O)c2ccn3c(C(F)(F)F)nnc3c2C)cc1CN1CC2CCC(F)(F)CN2c2ncccc2S1(=O)=O (centres undefined),< 1 nM
6,Cc1ccc([C@@H](c2ccn3c(C(F)(F)F)nnc3c2C)C(C)(C)C(=O)O)cc1CN1CC2(CCOCC2)Oc2ncccc2S1(=O)=O,< 1 nM
7,Cc1ccc([C@@H](CC(=O)O)c2cc(OC3CC3)c3c(c2)nnn3C)cc1CN1C[C@H]2CCCCN2c2ncccc2S1(=O)=O,< 1 nM
8,Cc1ccc([C@@H](CC(=O)O)c2ccn3c(C(F)F)nnc3c2C)cc1CN1C[C@H]2CCCN2c2ncccc2S1(=O)=O,< 1 nM
9,Cc1ccc([C@H](CC(=O)O)c2ccn3c(C(F)F)nnc3c2C)cc1CN1C[C@@H]2COCCN2c2ncccc2S1(=O)=O,< 1 nM
10,Cc1ccc(C(CC(=O)O)c2ccn3c(C(F)(F)F)nnc3c2C)nc1CN1CC2(COC2)Oc2ccccc2S1(=O)=O (centres undefined),< 1 nM
11,Cc1ccc(C(CC(=O)O)c2ccn3c(C(F)F)nnc3c2C)cc1CN1C[C@H]2CCCN2c2ncccc2S1(=O)=O (some centres undefined),< 1 nM
12,Cc1cnc2c(c1)S(=O)(=O)N(Cc1nc(C(CC(=O)O)c3ccn4c(C(F)(F)F)nnc4c3C)ccc1C)C[C@H]1CCCCN21 (some centres undefined),< 1 nM
13,Cc1ccc([C@@H](CC(=O)O)c2ccn3c(C(F)(F)F)nnc3c2C)nc1CN1CC2(COC2)Oc2ncccc2S1(=O)=O,< 1 nM
14,Cc1ccc([C@H](CC(=O)O)c2ccn3c(C(F)(F)F)nnc3c2C)cc1CN1CC2(CCOCC2)Oc2ncccc2S1(=O)=O,< 1 nM
15,Cc1ccc([C@@H](c2ccn3c(C(F)(F)F)nnc3c2C)C(C)(C)C(=O)O)cc1CN1C[C@@H]2CCCCN2c2ncc(C#N)cc2S1(=O)=O,< 1 nM
16,Cc1ccc([C@@H](CC(=O)O)c2ccn3c(C(F)F)nnc3c2C)cc1CN1CC2(CCOCC2)Oc2ccc(F)cc2S1(=O)=O,< 1 nM
17,Cc1ccc([C@@H](CC(=O)O)c2ccn3c(C(F)F)nnc3c2C)cc1CN1C[C@@H]2CCCCN2c2ncccc2S1(=O)=O,< 1 nM
18,Cc1ccc([C@H](CC(=O)O)c2ccn3c(C(F)F)nnc3c2C)cc1CN1CC2(CC2)Oc2ncccc2S1(=O)=O,< 1 nM
19,Cc1ccc([C@@H](CC(=O)O)c2ccn3c(C(F)(F)F)nnc3c2C)nc1CN1CC2(COC2)Oc2ccccc2S1(=O)=O,< 1 nM
20,Cc1ccc([C@@H](CC(=O)O)c2ccn3c(C(F)F)nnc3c2C)cc1CN1CC2(CC2)Oc2ncccc2S1(=O)=O,< 1 nM
21,Cc1cc2cc(C(CC(=O)O)c3ccc(C)c(CN4C[C@H]5CCCCN5c5ncccc5S4(=O)=O)c3)n(C)c2nn1 (some centres undefined),< 1 nM
22,Cc1ccc(C(CC(=O)O)c2ccn3c(C(F)F)nnc3c2C)cc1CN1CC2(CC2)Oc2ncc(F)cc2S1(=O)=O (centres undefined),< 1 nM
23,Cc1ccc([C@H](CC(=O)O)c2ccn3c(C(F)F)nnc3c2C)cc1CN1CC2(COC2)Oc2ccccc2S1(=O)=O,< 1 nM
